Here are results for 4 cell lines from the supplement of paper PMC10307832.

Holding throughout (experiment): relative viability (nuclei count vs DMSO), 5 days (fraction); higher = more cells survive
Compound in the test “BAY61-3606 + OSI-027”: COC1=C(C=C(C=C1)C2=CC3=NC=CN3C(=N2)NC4=C(C=CC=N4)C(=O)N)OC [BAY61-3606] + COc1cccc2cc(-c3nc([C@H]4CC[C@H](C(=O)O)CC4)n4ncnc(N)c34)[nH]c12 [OSI-027] (partner 0.5 µM)
Put shortly: (§1)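 Lung cancer cell lines in 1536-well plates got either a single drug or a fixed anchor-drug dose together with five library-drug doses (not always all listed) in √10 steps, by pin tool, on the day after seeding. Nuclei were counted after 5 days, and relative viability is the treated-to-vehicle ratio of nuclei counts. Values are medians of duplicate plates.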

Compound in the test “BAY61-3606 + Tozasertib”: COC1=C(C=C(C=C1)C2=CC3=NC=CN3C(=N2)NC4=C(C=CC=N4)C(=O)N)OC [BAY61-3606] + Cc1cc(Nc2cc(N3CCN(C)CC3)nc(Sc3ccc(NC(=O)C4CC4)cc3)n2)n[nH]1 [Tozasertib] (partner 0.1 µM)
In short, it runs like this: as §1

Compound in the test “BAY61-3606 + AZD7762”: COC1=C(C=C(C=C1)C2=CC3=NC=CN3C(=N2)NC4=C(C=CC=N4)C(=O)N)OC [BAY61-3606] + NC(=O)Nc1cc(-c2cccc(F)c2)sc1C(=O)N[C@H]1CCCNC1 [AZD7762] (partner 0.2 µM)
Put shortly:
as §1

Compound in the test “Doxorubicin + Alpelisib”: COc1cccc2c1C(=O)c1c(O)c3c(c(O)c1C2=O)C[C@@](O)(C(=O)CO)C[C@@H]3O[C@H]1C[C@H](N)[C@H](O)[C@H](C)O1 [Doxorubicin] + Cc1nc(NC(=O)N2CCC[C@H]2C(N)=O)sc1-c1ccnc(C(C)(C)C(F)(F)F)c1 [Alpelisib] (partner 2 µM)
In short, it runs like this:
as §1

For NCI-H358, the relative viability with BAY61-3606 + OSI-027 (first compound 0.02 µM) was 0.918; with BAY61-3606 + OSI-027 (first compound 0.06325 µM), 0.722; with BAY61-3606 + OSI-027 (first compound 0.2 µM), 0.781; with BAY61-3606 + OSI-027 (first compound 0.6325 µM), 0.677; in the test with BAY61-3606 + OSI-027 (first compound 2 µM) it was 0.199; in the test with BAY61-3606 + Tozasertib (first compound 0.02 µM), 0.108. Moreover, the relative viability came out at 0.111 with BAY61-3606 + Tozasertib (first compound 0.06325 µM); 0.107 in the test with BAY61-3606 + Tozasertib (first compound 0.2 µM); 0.103 with BAY61-3606 + Tozasertib (first compound 0.6325 µM); 0.0821 with BAY61-3606 + Tozasertib (first compound 2 µM); 0.489 with BAY61-3606 + AZD7762 (first compound 0.02 µM); 0.502 in the test with BAY61-3606 + AZD7762 (first compound 0.06325 µM). The relative viability was found to be 0.469 with BAY61-3606 + AZD7762 (first compound 0.2 µM); 0.468 with BAY61-3606 + AZD7762 (first compound 0.6325 µM); 0.261 with BAY61-3606 + AZD7762 (first compound 2 µM); 0.796 with Doxorubicin + Alpelisib (first compound 0.001 µM); 0.916 with Doxorubicin + Alpelisib (first compound 0.003162 µM); 0.569 with Doxorubicin + Alpelisib (first compound 0.01 µM). Moreover, the values for the relative viability with Doxorubicin + Alpelisib (first compound 0.03162 µM) and with Doxorubicin + Alpelisib (first compound 0.1 µM) were 0.19 and 0.154, respectively.

Regarding NCI-H1395, the relative viability amounted to 0.721 with BAY61-3606 + OSI-027 (first compound 0.02 µM); 0.581 with BAY61-3606 + OSI-027 (first compound 0.06325 µM); 0.601 with BAY61-3606 + OSI-027 (first compound 0.2 µM); 0.635 with BAY61-3606 + OSI-027 (first compound 0.6325 µM); 0.629 with BAY61-3606 + OSI-027 (first compound 2 µM); 0.722 with BAY61-3606 + Tozasertib (first compound 0.02 µM). Besides, the relative viability came out at 0.679 with BAY61-3606 + Tozasertib (first compound 0.06325 µM); 0.682 in the test with BAY61-3606 + Tozasertib (first compound 0.2 µM); 0.781 in the test with BAY61-3606 + Tozasertib (first compound 0.6325 µM); 0.411 with BAY61-3606 + Tozasertib (first compound 2 µM); 0.393 with BAY61-3606 + AZD7762 (first compound 0.02 µM); 0.411 in the test with BAY61-3606 + AZD7762 (first compound 0.06325 µM). The relative viability was found to be 0.424 with BAY61-3606 + AZD7762 (first compound 0.2 µM); 0.42 in the test with BAY61-3606 + AZD7762 (first compound 0.6325 µM); 0.393 in the test with BAY61-3606 + AZD7762 (first compound 2 µM); 0.964 with Doxorubicin + Alpelisib (first compound 0.001 µM); 0.985 in the test with Doxorubicin + Alpelisib (first compound 0.003162 µM); 0.98 in the test with Doxorubicin + Alpelisib (first compound 0.01 µM). The relative viability with Doxorubicin + Alpelisib (first compound 0.03162 µM) is 0.851; with Doxorubicin + Alpelisib (first compound 0.1 µM), 0.791.

For the cell line LC-2-ad, the relative viability worked out at 0.853 in the test with BAY61-3606 + OSI-027 (first compound 0.02 µM); 0.772 with BAY61-3606 + OSI-027 (first compound 0.06325 µM); 0.8 with BAY61-3606 + OSI-027 (first compound 0.2 µM); 0.997 in the test with BAY61-3606 + OSI-027 (first compound 0.6325 µM); 0.654 with BAY61-3606 + OSI-027 (first compound 2 µM); 0.404 in the test with BAY61-3606 + Tozasertib (first compound 0.02 µM). In addition, the relative viability with BAY61-3606 + Tozasertib (first compound 0.06325 µM) came out at 0.308; with BAY61-3606 + Tozasertib (first compound 0.2 µM), 0.387; with BAY61-3606 + Tozasertib (first compound 0.6325 µM) it was 0.44; in the test with BAY61-3606 + Tozasertib (first compound 2 µM), 0.345; with BAY61-3606 + AZD7762 (first compound 0.02 µM) it was 0.876; with BAY61-3606 + AZD7762 (first compound 0.06325 µM) it was 0.887. For the same cell line, the relative viability was found to be 0.778 with BAY61-3606 + AZD7762 (first compound 0.2 µM); 0.857 in the test with BAY61-3606 + AZD7762 (first compound 0.6325 µM); 0.849 with BAY61-3606 + AZD7762 (first compound 2 µM); 0.892 with Doxorubicin + Alpelisib (first compound 0.001 µM); 0.87 in the test with Doxorubicin + Alpelisib (first compound 0.003162 µM); 0.924 in the test with Doxorubicin + Alpelisib (first compound 0.01 µM). For the same cell line, the relative viability with Doxorubicin + Alpelisib (first compound 0.03162 µM) came to 0.859; with Doxorubicin + Alpelisib (first compound 0.1 µM), 0.724.

On to CAL-12T, for which the relative viability in the test with BAY61-3606 + OSI-027 (first compound 0.02 µM) was 0.674; with BAY61-3606 + OSI-027 (first compound 0.06325 µM), 0.593; with BAY61-3606 + OSI-027 (first compound 0.2 µM) it was 0.616; in the test with BAY61-3606 + OSI-027 (first compound 0.6325 µM) it was 0.605; with BAY61-3606 + OSI-027 (first compound 2 µM) it was 0.269; in the test with BAY61-3606 + Tozasertib (first compound 0.02 µM), 0.289. In addition, the relative viability in the test with BAY61-3606 + Tozasertib (first compound 0.06325 µM) came to 0.305; with BAY61-3606 + Tozasertib (first compound 0.2 µM), 0.198; in the test with BAY61-3606 + Tozasertib (first compound 0.6325 µM) it was 0.303; in the test with BAY61-3606 + Tozasertib (first compound 2 µM) it was 0.165; in the test with BAY61-3606 + AZD7762 (first compound 0.02 µM), 0.693; with BAY61-3606 + AZD7762 (first compound 0.06325 µM), 0.577. The relative viability is 0.677 with BAY61-3606 + AZD7762 (first compound 0.2 µM); 0.634 with BAY61-3606 + AZD7762 (first compound 0.6325 µM); 0.71 with BAY61-3606 + AZD7762 (first compound 2 µM); 1.23 with Doxorubicin + Alpelisib (first compound 0.001 µM); 1.41 in the test with Doxorubicin + Alpelisib (first compound 0.003162 µM); 0.587 with Doxorubicin + Alpelisib (first compound 0.01 µM). Also, the relative viability with Doxorubicin + Alpelisib (first compound 0.03162 µM) turned out to be 0.26; in the test with Doxorubicin + Alpelisib (first compound 0.1 µM), 0.142.
